Results published in article PMC7887271, “Fast acting allosteric phosphofructokinase inhibitors block trypanosome glycolysis and cure acute African trypanosomiasis in mice” (Nature Communications, 2021).
Several values for one entry are separate records, joined by “and”; a condition that tells them apart may be missing. Equal values may be shown once. Entries after “also recorded” stand apart in the source; their conditions may differ. Read-outs that look alike come from different tables or passages of the source.

Experiments:
[1] = Pharmacokinetic studies in mice (IV and PO); format: in vivo, female CD-1 mice; details: female; for AUC(0-inf): read-out: AUC (infinity)
Experimental: PK parameters for the lead compounds were determined using three mice per data point (Supplementary Methods 6.1).
Blood samples were collected from terminal cardiac puncture at 0.08 (IV only), 0.25, 0.5, 1 (PO only), 2, 4, 8 and 24 hour time points. The whole blood was centrifuged to obtain plasma. Brains were also collected following cardiac perfusion from both sets of animals at 2 hours. Analysis of the biological samples was carried out by the company Selcia. Plasma proteins were precipitated by addition of PBS (1 volume) followed by 3 volumes of acetonitrile containing internal standard (verapamil). Following filtration through a protein precipitation plate the eluent was dried under nitrogen and re-suspended in mobile phase prior to analysis. Individual brains were homogenised in PBS and diluted to 10% w/v and divided into aliquots consisting of brain homogenate (1 volume, 0.3 ml) and 3 volumes (0.9 ml) of acetonitrile containing internal standard. Samples were centrifuged and supernatants removed and taken through a protein precipitation plate alongside an appropriate standard. Eluents were dried under nitrogen and re-suspended in mobile phase prior to analysis. Eluents were analysed by LC-MS/MS using a Phenomenex Gemini NX column (C18,30 x 2.1 mm, 3 micron). Analysis of the data was carried out using PK solutions software.

T. b. brucei Lister 427 = experiment: Mouse model of stage 1 HAT; format: in vivo, T. b. brucei in female CD-1 mice
Experimental: T. b. brucei Lister 427 infection is cured by 1-day dosing. […] These parasites have a doubling time of ~6 h and infection with 1 × 10^5 parasites usually requires euthanasia of mice within 4–5 days of infection in the absence of drug treatment. Drug efficacy is determined by taking regular blood samples from infected mice and checking microscopically for parasitaemia. In this model of acute infection a single surviving parasite should proliferate to reach detectable levels in ~5 days and a 30-day period of no parasite detection is considered as cure.
For the mouse model of stage 1 HAT T. b. brucei Lister 427 parasites (1 × 10^5) were injected into a single donor female CD-1 mouse (University of Edinburgh; 6–8 weeks old) intraperitoneally in D-PBS containing 10 mM glucose. Parasites for subsequent stage 1 HAT infection were obtained from whole blood via cardiac puncture, under gaseous isoflurane anaesthesia. Parasites (1 × 10^3) harvested from the donor mouse were then injected into the peritoneum of female CD-1 mice (University of Edinburgh; 6–8 weeks old) in D-PBS containing 10 mM glucose. One day after infection, animals were either left untreated (n = 3) or dosed orally by gavage (n = 5) with CTCB compound in Cremophor EL: EtOH: D-PBS (30:10:60 v/v; Supplementary Methods 6.3).
T. b. brucei Lister 427 parasites (1 x 10^5) were injected into a single donor female CD-1 mouse (University of Edinburgh; 6-8 weeks old) intraperitoneally in D-PBS containing 10 mM glucose. Parasites for subsequent Stage 1 HAT infection were obtained from whole blood via cardiac puncture, under gaseous isoflurane anaesthesia as described above. Parasites (1 x 10^3) harvested from the donor mouse were then injected into the peritoneum of female CD-1 mice (University of Edinburgh; 6-8 weeks old) in D-PBS containing 10mM glucose. One day after infection, animals were either left untreated (n=3) or dosed orally by gavage (n=5) with CTCB compound in Cremophor EL: EtOH : D-PBS (30:10:60 v/v). The veterinary trypanocidal drug pentamidine isethionate (2.5 mg/kg for 4 consecutive days after infection) was administered intraperitoneally as control (n=3) for parasite elimination. Mice were monitored daily for parasitaemia day 1 post-infection onwards. Trypanosomes were quantified in blood samples from the tail vein by microscopy as previously described (12). Animals were sacrificed on the day that parasites were first detected in blood samples. (Supplementary Figure 11)

[2] = CD-1, mouse, plasma, oral, 5 mg/kg, 5 mg/kg oral dose (PO), mouse (female, CD-1), read-out: Plasma concentration, Mean
[3] = CD-1, mouse, plasma, oral, 5 mg/kg, 5 mg/kg oral dose (PO), mouse (female, CD-1), read-out: Plasma concentration, individual animal
[4] = CD-1, plasma, mouse, PO 5 mg kg^−1

CN(C)CCn1ccc2c(ccn2Cc2ccc(Cl)c(Cl)c2)c1=O [CTCB-405, 1-[(3,4-Dichlorophenyl)methyl]-5-[2-(dimethylamino)ethyl] pyrrolo[3,2-c]pyridin-4-one]
concentration at 8 h ([1]; CD-1, mouse, plasma, intravenous, 1 mg/kg, 1 mg/kg IV bolus, mouse (female, CD-1), read-out: Plasma concentration, Mean): 3.28 ng/mL and 9 nM
concentration at 8 h ([1]; CD-1, mouse, plasma, intravenous, 1 mg/kg, 1 mg/kg IV bolus, mouse (female, CD-1), read-out: Plasma concentration, individual animal): 7 nM and 2.5 ng/mL
concentration at 0.25 h [1, 2]: 200 ng/mL and 548 nM
concentration at 0.25 h [1, 3]: 155 ng/mL and 426 nM
concentration at 0.5 h [1, 2]: 103 ng/mL and 283 nM
concentration at 0.5 h [1, 3]: 105 ng/mL and 288 nM
concentration at 1 h ([1]; CD-1, mouse, plasma, oral, 5 mg/kg, 5 mg/kg oral dose (PO), mouse (female, CD-1), 1 h): 153 ng/mL and 421 nM
concentration at 2 h ([1]; CD-1, mouse, plasma, oral, 5 mg/kg, 5 mg/kg oral dose (PO), mouse (female, CD-1), 2 h): 208 ng/mL and 572 nM
concentration at 4 h [1, 2]: 89 ng/mL and 244 nM
concentration at 4 h [1, 3]: 94.3 ng/mL and 259 nM
concentration at 8 h [1, 2]: 8.2 ng/mL and 22.5 nM
concentration at 8 h [1, 3]: 7.3 ng/mL and 20 nM
AUC(0-inf) ([1]; CD-1, plasma, mouse, IV 1 mg kg^−1): 260 ng·h/mL
clearance ([1]; CD-1, plasma, mouse, IV 1 mg kg^−1, read-out: CL/kg (converted)): 63.3 mL/min/kg
half-life ([1]; CD-1, plasma, mouse, IV 1 mg kg^−1, read-out: Elimination t1/2 (converted)): 2.7 h
Vd ([1]; CD-1, plasma, mouse, IV 1 mg kg^−1, read-out: Vd (area)): 12.3 L/kg
Cmax [1, 4]: 206 ng/mL
Tmax [1, 4]: 0.3 h
AUC(0-inf) [1, 4]: 704 ng·h/mL
bioavailability ([1]; CD-1, plasma, mouse, PO 5 mg kg^−1 vs IV 1 mg kg^−1, read-out: Bioavailability (F%)): 54%
delay of onset of parasitaemia (T. b. brucei Lister 427; single oral doses of 50 mg kg^−1 over four consecutive days): up to 12 days
outcome of treatment (T. b. brucei Lister 427; three oral 50 mg kg^−1 doses 2 h apart daily over 2 days, n = 5): parasite clearance; also recorded: complete cure; also recorded: either complete clearance or a significant increase in survival
outcome of treatment (T. b. brucei Lister 427; three oral doses of 100 mg kg^−1 2 h apart on a single day, n = 5): parasites are undetectable; also recorded: no recurrence of parasitaemia 30 days post infection
infected mice with complete cure (T. b. brucei Lister 427; three oral doses of 100 mg kg^−1 at 2 h intervals on 1 day, cure = no parasitaemia for >30 days): 5/5
outcome of treatment (T. b. brucei Lister 427; two daily oral doses at 25 mg/kg delivered 4 hours apart, n=5): prolongs survival but does not improve efficacy
